# Like-named read-outs stand apart in the source and are kept apart here.
# Target: human NaV 1.8 (Homo sapiens, UniProt Q9Y5Y9)
# Assay: E-VIPR assay detecting and measuring NaV inhibition properties
# Format: cell-based
# Conditions: HEK cells expressing truncated human NaV 1.8
# In short: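 HEK cells expressing truncated, fully active human NaV1.8, with KIR2.1 BacMam co-transduction, were loaded with CC2-DMPE/DiSBAC6(3) voltage-sensing dyes for 20 min at room temperature. Compounds were tested in 11-point 3-fold dilutions (300 nM top final), optionally with 25% human serum, under electrical stimulation with FRET read-out.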
# [1] = no human serum, read-out: IC50 in the E-VIPR Assay
# [2] = in the presence of human serum (compound numbers followed by *), read-out: IC50 in the E-VIPR Assay, performed in the presence of human serum
# Chain of human NaV 1.8 (Q9Y5Y9 126-399 limits assumed): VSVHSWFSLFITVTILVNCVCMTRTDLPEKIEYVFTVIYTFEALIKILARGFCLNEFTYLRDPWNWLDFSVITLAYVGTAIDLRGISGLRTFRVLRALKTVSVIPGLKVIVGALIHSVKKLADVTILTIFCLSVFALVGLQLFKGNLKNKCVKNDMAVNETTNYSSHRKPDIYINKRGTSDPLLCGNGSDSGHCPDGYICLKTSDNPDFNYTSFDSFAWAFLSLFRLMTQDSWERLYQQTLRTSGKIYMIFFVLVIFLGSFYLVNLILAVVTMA
# Chain of human NaV 1.8 (Q9Y5Y9 660-890 limits assumed): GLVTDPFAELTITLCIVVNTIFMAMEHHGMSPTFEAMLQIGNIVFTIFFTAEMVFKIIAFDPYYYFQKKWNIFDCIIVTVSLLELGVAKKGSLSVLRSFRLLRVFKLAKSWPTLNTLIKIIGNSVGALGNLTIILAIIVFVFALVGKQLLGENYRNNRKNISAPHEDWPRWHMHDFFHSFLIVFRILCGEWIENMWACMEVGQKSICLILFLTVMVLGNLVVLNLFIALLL
# Chain of human NaV 1.8 (Q9Y5Y9 1148-1722 limits assumed): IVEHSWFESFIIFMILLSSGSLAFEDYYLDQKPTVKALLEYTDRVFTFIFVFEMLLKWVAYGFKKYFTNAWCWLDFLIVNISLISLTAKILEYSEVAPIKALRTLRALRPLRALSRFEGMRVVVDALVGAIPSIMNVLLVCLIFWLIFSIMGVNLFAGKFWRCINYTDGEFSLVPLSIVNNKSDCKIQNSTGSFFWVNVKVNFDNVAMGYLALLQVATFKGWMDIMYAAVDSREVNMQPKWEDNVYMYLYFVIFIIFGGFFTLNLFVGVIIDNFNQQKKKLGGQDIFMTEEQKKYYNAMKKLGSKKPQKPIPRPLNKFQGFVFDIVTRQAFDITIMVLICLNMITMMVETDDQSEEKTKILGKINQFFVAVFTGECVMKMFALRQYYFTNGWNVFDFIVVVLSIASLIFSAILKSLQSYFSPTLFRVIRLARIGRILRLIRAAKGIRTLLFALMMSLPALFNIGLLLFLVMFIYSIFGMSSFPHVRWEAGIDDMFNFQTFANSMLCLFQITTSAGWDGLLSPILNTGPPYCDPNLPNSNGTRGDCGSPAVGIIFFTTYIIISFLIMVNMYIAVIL
IC50 [1] [nM],IC50 [2] [nM],SMILES
10 to 100,,"COc1c([C@H]2[C@H](C(=O)Nc3ccnc(N4CC(N(C)C)CC4=O)c3)O[C@@](C)(C(F)(F)F)[C@H]2C)ccc(F)c1F (single isomer, unassigned) [Compound 505, rel-(2R*,3S*,4S*,5R*)-3-(3,4-difluoro-2-methoxyphenyl)-N-(2-(4-(dimethylamino)-2-oxopyrrolidin-1-yl)pyridin-4-yl)-4,5-dimethyl-5-(trifluoromethyl)tetrahydrofuran-2-carboxamide]"
10 to 100,,"COc1c([C@H]2[C@H](C(=O)Nc3ccnc(C4(N)COC4)n3)O[C@@](C)(C(F)(F)F)[C@H]2C)ccc(F)c1F [Compound 310, (2R,3S,4S,5R)-N-[2-(3-aminooxetan-3-yl)pyrimidin-4-yl]-3-(3,4-difluoro-2-methoxy-phenyl)-4,5-dimethyl-5-(trifluoromethyl)tetrahydrofuran-2-carboxamide]"
≥ 1000,,"C[C@@H]1[C@H](c2ccc(F)c(F)c2OC(F)F)[C@@H](C(=O)Nc2cc(S(C)(=O)=O)ccn2)O[C@]1(C)C(F)(F)F (single isomer, unassigned) [Compound 71]"
10 to 100,,"C[C@H]1[C@@H](c2ccc(F)c(F)c2OC(F)F)[C@H](C(=O)Nc2ccnc(CC(C)(C)O)c2)O[C@@]1(C)C(F)(F)F (single isomer, unassigned) [Compound 464]"
10 to 100,,"COc1c([C@@H]2C[C@](C)(C(F)(F)F)O[C@H]2C(=O)Nc2ccnc([C@H](O)CO)c2)ccc(F)c1C (single isomer, unassigned) [Compound 704]"
,< 10,"COc1c([C@H]2[C@H](C(=O)Nc3ccnc(C(CO)OC)c3)O[C@@](C)(C(F)(F)F)[C@H]2C)ccc(F)c1F (single isomer, unassigned) [Compound 249, rel-(2R*,3S*,4S*,5R*)-3-(3,4-difluoro-2-methoxyphenyl)-N-(2-(2-hydroxy-1-methoxyethyl)pyridin-4-yl)-4,5-dimethyl-5-(trifluoromethyl)tetrahydrofuran-2-carboxamide]"
10 to 100,,"COc1c([C@H]2[C@H](C(=O)Nc3ccnc(CC(C)(C)O)c3)O[C@@](C)(C(F)(F)F)[C@H]2C)ccc(F)c1F [Compound 405, (2R,3S,4S,5R)-3-(3,4-difluoro-2-methoxy-phenyl)-N-[2-(2-hydroxy-2-methyl-propyl)-4-pyridyl]-4,5-dimethyl-5-(trifluoromethyl)tetrahydrofuran-2-carboxamide]"
,100 to 1000,"C[C@H]1[C@@H](c2ccc(F)c(F)c2OC(F)F)[C@H](C(=O)Nc2cncc(C#N)c2)O[C@@]1(C)C(F)(F)F (single isomer, unassigned) [Compound 70]"
≥ 1000,,"COc1c([C@H]2[C@H](C(=O)NCC(C)(C)C(N)=O)O[C@@](C)(C(F)(F)F)[C@H]2C)ccc(F)c1F [Compound 282, (2R,3S,4S,5R)-N-(3-amino-2,2-dimethyl-3-oxopropyl)-3-(3,4-difluoro-2-methoxyphenyl)-4,5-dimethyl-5-(trifluoromethyl)tetrahydrofuran-2-carboxamide]"
≥ 1000,,"COc1c(C2C(C(=O)Nc3ccnc(C(O)CO)c3)OC(C)(C(F)(F)F)C2C)ccc(F)c1F (single isomer, unassigned) [Compound 43, 3-(3,4-difluoro-2-methoxy-phenyl)-N-[2-(1,2-dihydroxyethyl)-4-pyridyl]-4,5-dimethyl-5-(trifluoromethyl)tetrahydrofuran-2-carboxamide]"
10 to 100,,"COc1c([C@H]2[C@H](C(=O)Nc3ccnc(C(C)(O)CO)c3)OC(C)(C)[C@H]2C)ccc(F)c1F (single isomer, unassigned) [Compound 732]"
< 10,,"COCC(N)c1cc(NC(=O)[C@@H]2O[C@@](C)(C(F)(F)F)[C@@H](C)[C@H]2c2ccc(F)c(F)c2OC)c(F)cn1 (single isomer, unassigned) [Compound 423, rel-(2R*,3S*,4S*,5R*)-N-(2-(1-amino-2-methoxyethyl)-5-fluoropyridin-4-yl)-3-(3,4-difluoro-2-methoxyphenyl)-4,5-dimethyl-5-(trifluoromethyl)-tetrahydrofuran-2-carboxamide]"
100 to 1000,,"COc1c([C@H]2[C@H](C(=O)Nc3ccc(-c4nncn4C)nc3)O[C@@](C)(C(F)(F)F)[C@H]2C)ccc(F)c1F [Compound 397, (2R,3S,4S,5R)-3-(3,4-difluoro-2-methoxyphenyl)-4,5-dimethyl-N-(6-(4-methyl-4H-1,2,4-triazol-3-yl)pyridin-3-yl)-5-(trifluoromethyl)-tetrahydrofuran-2-carboxamide]"
< 10,,"COc1c([C@H]2[C@H](C(=O)Nc3cc(CO)ncn3)O[C@@](C)(C(F)(F)F)[C@H]2C)ccc(F)c1F [Compound 246, (2R,3S,4S,5R)-3-(3,4-difluoro-2-methoxyphenyl)-N-(6-(hydroxymethyl)pyrimidin-4-yl)-4,5-dimethyl-5-(trifluoromethyl)tetrahydrofuran-2-carboxamide]"
,≥ 1000,"C[C@@H]1[C@H](c2ccc(F)c(F)c2OC(F)F)[C@@H](C(=O)Nc2cccnc2)O[C@]1(C)C(F)(F)F (single isomer, unassigned) [Compound 66]"
100 to 1000,,"C[C@H]1[C@@H](c2ccc(F)c(F)c2OCCO)[C@H](C(=O)Nc2cnn(CC#N)c2)O[C@@]1(C)C(F)(F)F [Compound 549, (2R,3S,4S,5R)-N-(1-(cyanomethyl)-1H-pyrazol-4-yl)-3-(3,4-difluoro-2-(2-hydroxyethoxy)phenyl)-4,5-dimethyl-5-(trifluoromethyl)tetrahydrofuran-2-carboxamide]"
,≥ 1000,"COc1c([C@H]2C[C@@](C)(C(F)(F)F)O[C@@H]2C(=O)Nc2cc(C(O)CO)ncc2F)ccc(F)c1F (single isomer, unassigned) [Compound 690]"
100 to 1000,,"COc1c([C@H]2[C@H](C(=O)Nc3cc(CO)n(C)n3)O[C@@](C)(C(F)(F)F)[C@H]2C)ccc(F)c1F [Compound 263, (2R,3S,4S,5R)-3-(3,4-difluoro-2-methoxyphenyl)-N-(5-(hydroxymethyl)-1-methyl-1H-pyrazol-3-yl)-4,5-dimethyl-5-(trifluoromethyl)tetrahydrofuran-2-carboxamide]"
100 to 1000,,"COc1c([C@H]2[C@H](C(=O)Nc3ccc(-c4ccn(C)n4)nc3)O[C@@](C)(C(F)(F)F)[C@H]2C)ccc(F)c1F [Compound 400, (2R,3S,4S,5R)-3-(3,4-difluoro-2-methoxyphenyl)-4,5-dimethyl-N-(6-(1-methyl-1H-pyrazol-3-yl)pyridin-3-yl)-5-(trifluoromethyl)-tetrahydrofuran-2-carboxamide]"
100 to 1000,,"COc1c([C@H]2[C@H](C(=O)Nc3ccc(C(=O)NS(C)(=O)=O)nc3)O[C@@](C)(C(F)(F)F)[C@H]2C)ccc(F)c1F [Compound 375, 5-[[(2R,3S,4S,5R)-3-(3,4-difluoro-2-methoxy-phenyl)-4,5-dimethyl-5-(trifluoromethyl)tetrahydrofuran-2-carbonyl]amino]-N-methylsulfonyl-pyridine-2-carboxamide]"
< 10,,"COc1c([C@H]2[C@H](C(=O)Nc3ccnc(S(=O)(=O)N(C)C)c3)O[C@@](C)(C(F)(F)F)[C@H]2C)ccc(F)c1F (stereo in doubt) [Compound 449, rel-(2R,3S,4S,5R)-3-(3,4-difluoro-2-methoxyphenyl)-N-(2-(N,N-dimethylsulfamoyl)pyridin-4-yl)-4,5-dimethyl-5-(trifluoromethyl)tetrahydrofuran-2-carboxamide]"
< 10,,"COc1c([C@H]2[C@H](C(=O)Nc3cn(S(C)(=O)=O)nc3C)O[C@@](C)(C(F)(F)F)[C@H]2C)ccc(F)c1F [Compound 180, (2R,3S,4S,5R)-3-(3,4-difluoro-2-methoxyphenyl)-4,5-dimethyl-N-(3-methyl-1-(methylsulfonyl)-1H-pyrazol-4-yl)-5-(trifluoromethyl)tetrahydrofuran-2-carboxamide]"
10 to 100,,"CNC(=O)c1cn2cc(NC(=O)[C@@H]3O[C@@](C)(C(F)(F)F)[C@@H](C)[C@H]3c3ccc(F)c(F)c3OC)ccc2n1 [Compound 258, 6-((2R,3S,4S,5R)-3-(3,4-difluoro-2-methoxyphenyl)-4,5-dimethyl-5-(trifluoromethyl)tetrahydrofuran-2-carboxamido)-N-methylimidazo[1,2-a]pyridine-2-carboxamide]"
10 to 100,,"C[C@H]1[C@@H](c2ccc(F)c(F)c2OCC2CC(F)(F)C2)[C@H](C(=O)Nc2ccnc(CO)c2)O[C@@]1(C)C(F)(F)F [Compound 644, (2R,3S,4S,5R)-3-(2-((3,3-difluorocyclobutyl)methoxy)-3,4-difluorophenyl)-N-(2-(hydroxymethyl)pyridin-4-yl)-4,5-dimethyl-5-(trifluoromethyl)tetrahydrofuran-2-carboxamide]"
10 to 100,,C[C@H]1[C@@H](c2ccc(F)c(F)c2OCCN2CC(F)C2)[C@H](C(=O)Nc2ccc3nncn3c2)O[C@@]1(C)C(F)(F)F [Compound 635]
100 to 1000,,"CCS(=O)(=O)c1cc(NC(=O)[C@H]2O[C@](C)(C(F)(F)F)[C@H](C)[C@@H]2c2ccc(F)c(F)c2OC(F)F)ccn1 (single isomer, unassigned) [Compound 89]"
10 to 100,,"Cc1nocc1NC(=O)[C@@H]1O[C@@](C)(C(F)(F)F)[C@@H](C)[C@H]1c1ccc(F)c(F)c1OCCN1C[C@H]2COC[C@H]2C1 [Compound 634, (2R,3S,4S,5R)-3-(3,4-difluoro-2-(2-((3aR,6aS)-tetrahydro-1H-furo[3,4-c]pyrrol-5(3H)-yl)ethoxy)phenyl)-4,5-dimethyl-N-(3-methylisoxazol-4-yl)-5-(trifluoromethyl)tetrahydrofuran-2-carboxamide]"
100 to 1000,,"Cc1nocc1NC(=O)[C@@H]1O[C@@](C)(C(F)(F)F)[C@@H](C)[C@H]1c1ccc(F)c(F)c1OC[C@@H](C)N1CC2(COC2)C1 [Compound 624, (2R,3S,4S,5R)-3-[3,4-difluoro-2-[(2R)-2-(2-oxa-6-azaspiro[3.3]heptan-6-yl)propoxy]phenyl]-4,5-dimethyl-N-(3-methylisoxazol-4-yl)-5-(trifluoromethyl)tetrahydrofuran-2-carboxamide]"
